In patent US20250122173A1, “MODULATORS OF RHO-ASSOCIATED PROTEIN KINASE” (Redx Pharma Limited, priority 2022, published 2025):

What was measured:
ROCK1 = ROCK1 (Homo sapiens, UniProt Q13464); test: ROCK1 inhibition assay (ROCK1 binding activity, as determined by the assay described for ROCK2); format: biochemical; conditions: read-out: ROCK 1 (IC50 category)
Protocol: Assay for ROCK2 inhibition was performed using the protein construct N-terminal 6His-tagged ROCK2 catalytic domain 11-552 (Dundee University, UK). Protein was purified from a baculovirus expression system. Long S6 peptide ([…]) was used as substrate. Kinase reactions were carried out in 15 μl volume in a 96-well plate (black, half area) using 1.25 nM constitutively active ROCK2 kinase, 100 μM long S6 peptide, 20 μM ATP and test compound in DMSO (or DMSO only for controls). The final concentration of DMSO was 1%. Assay buffer was 50 mM HEPES pH 7.5 supplemented with 0.2 mM EDTA, 10 mM magnesium acetate, 0.01% Tween-20, 1 mM DTT and 0.01% BSA. Test compounds were pre-incubated with ROCK2 kinase for 1 hour before addition of ATP and long S6 peptide. After incubation for a further 1 hour, the amount of ADP produced was measured using ADP-Glo Kinase Assay (Promega) as per manufacturer's instructions. The luminescence was measured on a PHERAstar FS (BMG Labtech). The concentration of test compound required to inhibit ADP production by 50% (the IC50) was calculated using a four-parameter logistic function with software by Dotmatics. […] The category “+” refers to compounds with a ROCK2 or ROCK1 IC50 value of >10 μM. The category “++” refers to compounds with a ROCK2 or ROCK1 IC50 value of 10 to 3 μM. The category “+++” refers to compounds with a ROCK1 or ROCK2 IC50 value of 3 to 0.3 μM. The category “++++” refers to compounds with a ROCK1 or ROCK2 IC50 value of <0.3 μM.

ROCK2 = molecular target: T1, ROCK2 (Homo sapiens, UniProt O75116); test: ROCK2 inhibition assay (ADP-Glo kinase assay, called ROCK2 binding activity); format: biochemical; conditions: 20 μM ATP, 1 hour pre-incubation, read-out: ROCK 2 (IC50 category)
T1 construct: N-terminal 6His-tagged ROCK2 catalytic domain 11-552; 6His (N); purchased Dundee University, UK; host or cells: baculovirus expression system
T1 sequence (O75116 11-552): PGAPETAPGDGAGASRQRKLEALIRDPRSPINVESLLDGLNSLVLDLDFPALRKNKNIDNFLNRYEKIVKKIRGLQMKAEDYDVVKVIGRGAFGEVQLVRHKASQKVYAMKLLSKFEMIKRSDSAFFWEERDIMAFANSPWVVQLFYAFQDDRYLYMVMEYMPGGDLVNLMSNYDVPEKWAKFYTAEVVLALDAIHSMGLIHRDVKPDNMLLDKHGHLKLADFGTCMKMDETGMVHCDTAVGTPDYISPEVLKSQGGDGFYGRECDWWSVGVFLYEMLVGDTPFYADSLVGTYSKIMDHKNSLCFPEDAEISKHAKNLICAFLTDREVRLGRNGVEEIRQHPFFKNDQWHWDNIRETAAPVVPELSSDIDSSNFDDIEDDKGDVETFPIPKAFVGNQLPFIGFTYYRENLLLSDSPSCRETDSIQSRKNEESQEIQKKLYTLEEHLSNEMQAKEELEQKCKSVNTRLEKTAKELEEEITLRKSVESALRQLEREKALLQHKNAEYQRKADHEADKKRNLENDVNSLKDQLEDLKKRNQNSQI
Protocol: ROCK2 Binding Activity: Assay for ROCK2 inhibition was performed using the protein construct N-terminal 6His-tagged ROCK2 catalytic domain 11-552 (Dundee University, UK). Protein was purified from a baculovirus expression system. Long S6 peptide ([…]) was used as substrate. Kinase reactions were carried out in 15 μl volume in a 96-well plate (black, half area) using 1.25 nM constitutively active ROCK2 kinase, 100 μM long S6 peptide, 20 μM ATP and test compound in DMSO (or DMSO only for controls). The final concentration of DMSO was 1%. Assay buffer was 50 mM HEPES pH 7.5 supplemented with 0.2 mM EDTA, 10 mM magnesium acetate, 0.01% Tween-20, 1 mM DTT and 0.01% BSA. Test compounds were pre-incubated with ROCK2 kinase for 1 hour before addition of ATP and long S6 peptide. After incubation for a further 1 hour, the amount of ADP produced was measured using ADP-Glo Kinase Assay (Promega) as per manufacturer's instructions. The luminescence was measured on a PHERAstar FS (BMG Labtech). The concentration of test compound required to inhibit ADP production by 50% (the IC50) was calculated using a four-parameter logistic function with software by Dotmatics. […] The category “+” refers to compounds with a ROCK2 or ROCK1 IC50 value of >10 μM. The category “++” refers to compounds with a ROCK2 or ROCK1 IC50 value of 10 to 3 μM. The category “+++” refers to compounds with a ROCK1 or ROCK2 IC50 value of 3 to 0.3 μM. The category “++++” refers to compounds with a ROCK1 or ROCK2 IC50 value of <0.3 μM.

Chain of ROCK1 (Q13464 whole entry, the tested form may be a part): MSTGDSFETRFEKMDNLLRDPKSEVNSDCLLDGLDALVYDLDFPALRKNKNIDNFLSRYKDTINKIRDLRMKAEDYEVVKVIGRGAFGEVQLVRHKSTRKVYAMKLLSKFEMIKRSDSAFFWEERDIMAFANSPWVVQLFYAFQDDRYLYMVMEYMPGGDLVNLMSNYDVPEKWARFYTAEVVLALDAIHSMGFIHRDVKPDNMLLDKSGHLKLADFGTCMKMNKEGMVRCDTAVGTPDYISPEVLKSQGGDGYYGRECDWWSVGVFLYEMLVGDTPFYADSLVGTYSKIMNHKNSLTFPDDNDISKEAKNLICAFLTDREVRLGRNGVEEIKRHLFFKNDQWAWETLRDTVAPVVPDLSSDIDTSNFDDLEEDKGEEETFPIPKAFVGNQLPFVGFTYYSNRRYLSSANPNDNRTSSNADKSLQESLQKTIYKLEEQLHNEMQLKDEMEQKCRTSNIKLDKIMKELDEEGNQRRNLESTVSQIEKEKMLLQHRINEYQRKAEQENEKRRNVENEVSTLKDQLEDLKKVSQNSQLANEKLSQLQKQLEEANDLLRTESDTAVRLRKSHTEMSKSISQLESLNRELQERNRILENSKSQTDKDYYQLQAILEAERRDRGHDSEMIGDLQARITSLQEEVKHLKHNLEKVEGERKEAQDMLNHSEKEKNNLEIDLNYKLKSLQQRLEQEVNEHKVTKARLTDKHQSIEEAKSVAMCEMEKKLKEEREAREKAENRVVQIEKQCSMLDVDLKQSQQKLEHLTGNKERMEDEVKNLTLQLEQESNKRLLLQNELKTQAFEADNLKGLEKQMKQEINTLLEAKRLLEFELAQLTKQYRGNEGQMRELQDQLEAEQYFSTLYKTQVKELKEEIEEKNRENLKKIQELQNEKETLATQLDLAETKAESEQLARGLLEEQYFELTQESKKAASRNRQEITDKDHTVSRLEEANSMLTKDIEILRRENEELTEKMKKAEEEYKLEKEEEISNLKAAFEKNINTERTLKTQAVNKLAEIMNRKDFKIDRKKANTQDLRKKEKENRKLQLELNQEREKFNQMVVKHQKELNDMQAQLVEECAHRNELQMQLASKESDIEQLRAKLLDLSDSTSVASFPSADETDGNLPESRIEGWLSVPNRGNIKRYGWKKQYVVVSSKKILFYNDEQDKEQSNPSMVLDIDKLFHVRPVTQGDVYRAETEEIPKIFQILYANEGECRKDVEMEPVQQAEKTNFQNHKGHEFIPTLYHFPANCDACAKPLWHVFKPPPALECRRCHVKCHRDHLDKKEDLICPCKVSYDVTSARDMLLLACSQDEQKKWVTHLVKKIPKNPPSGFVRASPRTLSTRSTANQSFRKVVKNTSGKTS

| SMILES | IC50 (ROCK1) [µM] | IC50 (ROCK2) [µM] |
| --- | --- | --- |
| CCn1nc(-c2ccc(-c3ccc(C)nc3)cc2)nc1Nc1cc2c(cc1C)C(=O)NC2C (single isomer, unassigned) [Example 78] | 3 to 10 | < 0.3 |
| CCn1nc(-c2ccc(-c3ccc(C)nc3)cc2)nc1Nc1cc2c(cc1C)C(=O)NC2C (single isomer, unassigned) [Example 84] | 3 to 10 | < 0.3 |
| Cc1cn(-c2ccc(-c3nc(Nc4ccc5c(c4)CNC5=O)n(C)n3)cc2)cn1 [Example 1] | > 10 | < 0.3 |
| CCc1cn(-c2ccc(-c3nc(Nc4ccc5c(c4)CNC5=O)n(C)n3)cc2)c(C)n1 [Example 2] | > 10 | < 0.3 |
| Cc1nc(C2CC2)cn1-c1ccc(-c2nc(Nc3ccc4c(c3)CNC4=O)n(C)n2)cc1 [Example 3] | > 10 | < 0.3 |
| CCn1nc(-c2ccc(-n3cc(C4CC4)nc3C)cc2)nc1Nc1ccc2c(c1)CNC2=O [Example 4] | 3 to 10 | < 0.3 |
| Cn1nc(-c2ccc(-c3ccnc(C(F)(F)F)c3)cc2)nc1Nc1ccc2c(c1)CNC2=O [Example 5] | 3 to 10 | < 0.3 |
| Cn1nc(-c2ccc(C(=O)NCC(F)(F)F)cc2)nc1Nc1ccc2c(c1)CNC2=O [Example 6] | > 10 | < 0.3 |
| Cn1nc(-c2ccc(C(=O)NCC(F)F)cc2)nc1Nc1ccc2c(c1)CNC2=O [Example 7] | > 10 | 3 to 10 |
| CCn1nc(-c2ccc(-n3cc(C4CC4)nc3C)cc2)nc1Nc1ccc2c(c1C)CNC2=O [Example 8] | > 10 | < 0.3 |
| Cn1nc(-c2cccc(C(=O)NCC(F)(F)F)c2)nc1Nc1ccc2c(c1)CNC2=O [Example 9] | > 10 | 3 to 10 |
| Cn1nc(-c2ccc(-c3ccc(C(F)(F)F)nc3)cc2)nc1Nc1ccc2c(c1)CNC2=O [Example 10] | > 10 | < 0.3 |
| CCn1nc(-c2ccc(-c3cnc(C4CC4)n3C)cc2)nc1Nc1ccc2c(c1C)CNC2=O [Example 11] | > 10 | 3 to 10 |
| Cc1cc(-c2nc(Nc3ccc4c(c3C)CNC4=O)n(C)n2)ccc1-c1cnc(C2CC2)n1C [Example 12] | > 10 | 3 to 10 |
| Cc1cc(-c2nc(Nc3ccc4c(c3C)CNC4=O)n(C)n2)ccc1-n1cnc(C2CC2)c1 [Example 13] | > 10 | < 0.3 |
| Cn1nc(-c2ccc(-n3cnc(C4CC4)c3)cc2)nc1Nc1ccc2c(c1)CNC2=O [Example 14] | > 10 | < 0.3 |
| CCn1nc(-c2ccc(-c3ccc(C)nc3)cc2)nc1Nc1ccc2c(c1)CNC2=O [Example 15] | 3 to 10 | < 0.3 |
| Cn1nc(-c2ccc(-n3cnc(C4CC4)c3)cc2)nc1Nc1ccc2c(c1)C(C)(C)NC2=O [Example 16] | > 10 | < 0.3 |
| Cc1nc(C2CC2)cn1-c1ccc(-c2nc(Nc3ccc4c(c3)C(C)(C)NC4=O)n(C)n2)cc1 [Example 17] | > 10 | 3 to 10 |
| CCn1nc(-c2ccc(-n3cc(C4CC4)nc3C)cc2)nc1Nc1ccc2c(c1)C(C)(C)NC2=O [Example 18] | > 10 | 3 to 10 |
| CCn1nc(-c2ccc(-n3cnc(C4CC4)c3)cc2)nc1Nc1ccc2c(c1)C(C)(C)NC2=O [Example 19] | > 10 | < 0.3 |
| CCn1nc(-c2ccc(-c3ccc(C4CC4)nc3)cc2)nc1Nc1ccc2c(c1)CNC2=O [Example 20] | 3 to 10 | < 0.3 |
| CCn1nc(-c2ccc(-n3cnc(C4CC4)c3)cc2)nc1Nc1ccc2c(c1)C(C)NC2=O (centres unmarked) [Example 21] | 3 to 10 | < 0.3 |
| CCn1nc(-c2ccc(-n3cc(C4CC4)nc3C)cc2)nc1Nc1ccc2c(c1)C(C)NC2=O (centres unmarked) [Example 22] | 3 to 10 | < 0.3 |
| CCn1nc(-c2ccc(-n3cnc(C4CC4)c3)cc2)nc1Nc1ccc2c(c1)C1(CC1)NC2=O [Example 23] | > 10 | < 0.3 |

| SMILES | IC50 (ROCK1) [µM] | IC50 (ROCK2) [µM] |
| --- | --- | --- |
| CCn1nc(-c2ccc(-n3cnc(C4CC4)c3)cc2)nc1Nc1ccc2c(c1)CNC2=O [Example 24] | 3 to 10 | < 0.3 |
| CCn1nc(-c2ccc(-c3cnc(C4CC4)n3C)cc2)nc1Nc1ccc2c(c1)CNC2=O [Example 25] | 3 to 10 | < 0.3 |
| CCn1nc(-c2ccc(-c3ccnc(C)c3)c(C)c2)nc1Nc1ccc2c(c1)CNC2=O [Example 26] | 3 to 10 | < 0.3 |
| CCn1nc(-c2ccc(-c3ccc(C)cn3)cc2)nc1Nc1ccc2c(c1)CNC2=O [Example 27] | 3 to 10 | < 0.3 |
| CCn1nc(-c2ccc(-c3ccccn3)cc2)nc1Nc1ccc2c(c1)CNC2=O [Example 28] | 3 to 10 | < 0.3 |
| CCn1nc(-c2ccc(-c3cccnc3)cc2)nc1Nc1ccc2c(c1)CNC2=O [Example 29] | 3 to 10 | < 0.3 |
| CCn1nc(-c2ccc(-c3ccncc3)cc2)nc1Nc1ccc2c(c1)CNC2=O [Example 30] | 3 to 10 | < 0.3 |
| CCn1nc(-c2ccc(-c3ccc(C)nc3)c(C)c2)nc1Nc1ccc2c(c1)CNC2=O [Example 31] | 3 to 10 | < 0.3 |
| CCn1nc(-c2ccc(-c3ccnc(C4CC4)c3)c(C)c2)nc1Nc1ccc2c(c1)CNC2=O [Example 32] | < 0.3 | < 0.3 |
| CCn1nc(-c2ccc(-c3ccnc(C4CC4)c3)c(F)c2)nc1Nc1ccc2c(c1)CNC2=O [Example 33] | 3 to 10 | < 0.3 |
| CCn1nc(-c2ccc(-c3ccnc(C)c3)c(F)c2)nc1Nc1ccc2c(c1)CNC2=O [Example 34] | 3 to 10 | < 0.3 |
| CCn1nc(-c2ccc(-c3ccc(C)nc3)cc2)nc1Nc1ccc2c(c1)CN(C)C2=O [Example 35] | > 10 | 3 to 10 |
| CCn1nc(-c2ccc(-c3ccc(C)nc3)c(OC)c2)nc1Nc1ccc2c(c1)CNC2=O [Example 36] | < 0.3 | < 0.3 |
| CCn1nc(-c2ccc(-c3ccc(C4CC4)nc3)c(F)c2)nc1Nc1ccc2c(c1)CNC2=O [Example 37] | > 10 | < 0.3 |
| CCn1nc(-c2ccc(-c3ccc(C)nc3)nc2)nc1Nc1ccc2c(c1)CNC2=O [Example 39] | > 10 | < 0.3 |
| CCn1nc(-c2ccc(-c3ccc(C4CC4)nc3)c(C)c2)nc1Nc1ccc2c(c1)CNC2=O [Example 40] | > 10 | < 0.3 |
| CCn1nc(-c2ccc(-c3ccc(C)nc3)cc2)nc1Nc1cc2c(cc1C)C(=O)NC2C (centres unmarked) [Example 41] | 3 to 10 | < 0.3 |
| CCn1nc(-c2ccc(-c3cnc(C)c(C)c3)cc2)nc1Nc1ccc2c(c1)CNC2=O [Example 42] | < 0.3 | < 0.3 |
| CCn1nc(-c2ccc(-c3ccc(C)nc3)cc2)nc1Nc1ccc2c(c1C)C(C)NC2=O (centres unmarked) [Example 43] | > 10 | 3 to 10 |
| CCn1nc(-c2ccc(-c3ccc(C)cn3)c(C)c2)nc1Nc1ccc2c(c1)CNC2=O [Example 44] | > 10 | < 0.3 |
| CCn1nc(-c2ccc(-n3cnc(C4CC4)c3)cc2)nc1Nc1cc2c(cc1C)C(=O)NC2C (centres unmarked) [Example 45] | 3 to 10 | < 0.3 |
| CCn1nc(-c2ccc(-c3ccc(C)nc3)cc2)nc1Nc1cnc2c(c1)CNC2=O [Example 46] | > 10 | 0.3 to 3 |
| CCn1nc(-c2ccc(-c3ccc(C4CC4)nc3)cc2)nc1Nc1ccc2c(c1)C(C)NC2=O (centres unmarked) [Example 47] | 3 to 10 | < 0.3 |
| CCn1nc(-c2ccc(-c3ccc(C4CC4)nc3)c(C)c2)nc1Nc1cc2c(cc1C)C(=O)NC2C (centres unmarked) [Example 48] | 3 to 10 | < 0.3 |
